Measured values as given in PubChem BioAssay (NCI).
Where “and” joins values, the source holds several entries; their conditions need not be identical. Equal values may be shown once.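 Compound exposure: 48 hours, 5 concentrations, 96-well plates. The concentration for 50% growth inhibition is given as GI50. Definition used: TGI = concentration required for complete inhibition of growth.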

Experiments:
Assay in all cases: inhibition of tumour cell growth, NCI panel, 48 h
[1] = tested on: UACC-62 melanoma
[2] = tested on: MOLT-4 leukemia
[3] = tested on: SNB-75 CNS
[4] = tested on: HCT-116 colon
[5] = tested on: HCC-2998 colon
[6] = tested on: NCI-H522 lung
[7] = tested on: RPMI-8226 leukemia
[8] = tested on: ACHN renal
[9] = tested on: MDA-MB-435
[10] = tested on: SF-268 CNS

| SMILES | GI50 [1] | TGI [1] [µM] | GI50 [2] | TGI [2] [µM] | GI50 [3] [nM] | TGI [3] [µM] | GI50 [4] [nM] | TGI [4] [nM] | GI50 [5] | TGI [5] [µM] | GI50 [6] [nM] | TGI [6] [µM] | GI50 [7] | TGI [7] [µM] | GI50 [8] | TGI [8] [µM] | GI50 [9] [nM] | TGI [9] | GI50 [10] | TGI [10] [µM] |
| --- | --- | --- | --- | --- | --- | --- | --- | --- | --- | --- | --- | --- | --- | --- | --- | --- | --- | --- | --- | --- |
| CC(=O)OCCCC#CC#Cc1cccc(=O)o1 | 14600 nM | 28.9 | 6590 nM | > 100 | 29100 | 67.2 | 14600 | 29100 | 16600 nM | 33.2 | 32100 | > 100 | 4190 nM | 20.3 | 19200 nM | 35 | 16000 | 31.4 µM | 19400 nM | 41.1 |
| COC(=O)[C@@H](C)C[C@H](Cc1ccccc1)NC(=O)c1csc([C@@H](C[C@H](C(C)C)N(C)C(=O)[C@@H](NC(=O)[C@H]2CCCN2C)C2CC2)OC(C)=O)n1 | 0.445 nM and 2.5 nM | > 25 | 3.16 nM and 2.5 nM | > 25 | 2.5 | > 25 | 0.389 | – | 4.31 nM and 2.5 nM | > 25 | 0.223 | 0.000814 | 0.262 nM and 2.5 nM | 12.2 | 4.19 nM and 2.5 nM | > 25 | < 2.5 | 0.00049 µM and < 0.0025 µM | 8.71 nM and 2.5 nM | > 25 |
| N#CC1=C(N)Oc2c(sc3c(Br)cccc23)C1c1ccc(Cl)cc1 (centres undefined) | 435 nM | 8.35 | 625 nM | 6.49 | 478 | 9.41 | 429 | 1790 | 1570 nM | 6.29 | 367 | 2.43 | 496 nM | 9.25 | 531 nM | 2.46 | 277 | 1.01 µM | 917 nM | 7.62 |
| Cn1cc(C2=C(c3cn(CCCCCO)c4ccccc34)C(=O)NC2=O)c2ccccc21 | 3990 nM | 9.17 | 4710 nM | 16.6 | 1210 | 8.9 | 4670 | > 25000 | 7470 nM | > 20.6 | 2270 | 10.6 | 6600 nM | 18.4 | 6820 nM | 24.8 | 815 | 4.4 µM | 6340 nM | 19.1 |
| C=C1C(=O)O[C@H]2[C@H]1CC/C(CNC(=O)/C=C/c1ccccc1F)=C\CC[C@@]1(C)O[C@@H]21 | 1470 nM | 2.94 | 1550 nM | 4.86 | 2180 | 8.29 | 482 | 1690 | 1880 nM | 3.59 | 399 | 1.64 | 1410 nM | 5.84 | 1120 nM | 2.53 | 1500 | 6.34 µM | 2830 nM | 9.8 |
| CN1C(=O)C2(c3ccccc31)C1CC3C(CO1)C1C2C3(CO)CN1C#N (centres undefined) | – | > 100 | – | > 100 | – | > 100 | – | > 100000 | – | > 100 | – | > 100 | – | > 100 | – | > 100 | – | > 100 µM | – | > 100 |
| CN(C)c1ccccc1[CH2][Ga]([Cl])[CH2]c1ccccc1N(C)C | 717 nM | 2.08 | 927 nM | 5.37 | 1410 | 2.74 | 833 | 2170 | 1230 nM | 2.88 | 1410 | 3.45 | 651 nM | 3.63 | 1430 nM | 3.12 | 1610 | 3.12 µM | 1770 nM | 3.3 |
| Cc1ccccc1C(C(=O)NC1CCCCC1)N(C(=O)CNc1ccc(C#N)cc1)c1cccc(F)c1 (centres undefined) | 18700 nM | > 100 | > 100000 nM | > 100 | 1380 | 8.97 | 13600 | > 100000 | > 100000 nM | > 100 | 14300 | > 100 | > 100000 nM | > 100 | 11700 nM | > 100 | > 72400 | > 100 µM | 16600 nM | > 100 |
